# Reference: patent US7713994B2 (Wyeth LLC, priority 2005, dated 2010)
# Tests used:
# cyclin E/CDK2 enzyme = target: T1, cyclin E/CDK2 enzyme (Homo sapiens, UniProt P24941); assay: CDK2 ELISA kinase assay (phospho-Rb ser 795 detection); type: biochemical; conditions: In Vitro Enzyme Assays, read-out: CDK2 IC50
# T1 construct: made in house; host or cells: Sf9 insect cells, recombinant baculovirus
# Procedure, shortened: (§1)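 Partially purified Sf9-expressed cyclin D1/CDK4, cyclin E/CDK2 or cyclin B/CDK1 phosphorylated plate-bound GST-Rb C-terminal fragment with 200 μM ATP at 30° C for 1 h.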
# BT474 = assay: Cytotoxicity assay (SRB), BT474; type: cell-based; conditions: Homo sapiens, BT-474, 144 h, BT474 cells, SRB, 6 days; read-out: In Vitro Cellular Activity IC50 BT474
# Procedure, shortened: (§2)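 Percentage survival is derived from SRB absorbance (540 nm) versus untreated cells. Exposures were 3 days, except 6 days for BT474, at 37 °C and 7% CO2.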
# LoVo = assay: Cytotoxicity assay (SRB), LoVo; type: cell-based; conditions: Homo sapiens, LoVo, 72 h, LoVo cells, SRB, three days; read-out: In Vitro Cellular Activity IC50 LOVO
# Procedure, shortened: as §2
# MCF-7 = assay: Cytotoxicity assay (SRB), MCF-7; type: cell-based; conditions: Homo sapiens, MCF7, 72 h, MCF-7 cells, SRB, three days; read-out: In Vitro Cellular Activity IC50 MCF-7
# Procedure, shortened: as §2
# cyclin B/CDK1 enzyme = target: T2, cyclin B/CDK1 enzyme (Homo sapiens, UniProt P06493); assay: CDK1 ELISA kinase assay (phospho-Rb ser 795 detection); type: biochemical; conditions: In Vitro Enzyme Assays, read-out: CDK1 IC50
# T2 construct: purchased New England BioLabs; host or cells: Sf9 insect cells, recombinant baculovirus
# T2 sequence (P06493 whole entry): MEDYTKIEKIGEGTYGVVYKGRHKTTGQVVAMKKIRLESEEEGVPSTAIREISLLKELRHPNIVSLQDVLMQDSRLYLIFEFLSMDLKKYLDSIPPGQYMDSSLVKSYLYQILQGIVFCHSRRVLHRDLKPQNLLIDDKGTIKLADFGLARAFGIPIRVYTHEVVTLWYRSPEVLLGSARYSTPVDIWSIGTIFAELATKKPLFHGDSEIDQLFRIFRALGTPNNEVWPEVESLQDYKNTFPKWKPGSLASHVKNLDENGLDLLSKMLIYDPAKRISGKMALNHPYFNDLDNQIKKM
# T2 sequence (P14635 whole entry partner): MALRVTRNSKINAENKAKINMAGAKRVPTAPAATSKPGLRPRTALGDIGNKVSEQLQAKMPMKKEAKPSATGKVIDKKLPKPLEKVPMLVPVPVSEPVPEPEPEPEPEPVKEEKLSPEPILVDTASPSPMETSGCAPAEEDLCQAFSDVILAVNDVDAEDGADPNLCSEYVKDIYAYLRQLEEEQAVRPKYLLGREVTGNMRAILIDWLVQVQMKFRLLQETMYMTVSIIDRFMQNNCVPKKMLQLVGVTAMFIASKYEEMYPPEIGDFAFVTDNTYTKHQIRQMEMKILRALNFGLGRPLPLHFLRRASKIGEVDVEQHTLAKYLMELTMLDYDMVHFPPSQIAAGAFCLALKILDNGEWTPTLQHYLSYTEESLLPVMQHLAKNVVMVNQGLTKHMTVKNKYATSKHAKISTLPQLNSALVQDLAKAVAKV
# Procedure, shortened: as §1
# HCT-116 = assay: Cytotoxicity assay (SRB), HCT-116; type: cell-based; conditions: Homo sapiens, HCT-116, 72 h, HCT116 cells, SRB, three days; read-out: In Vitro Cellular Activity IC50 HCT116
# Procedure, shortened: as §2
# cyclin D1/cdk 4 enzyme = target: T3, cyclin D1/cdk 4 enzyme (Homo sapiens, UniProt P11802); assay: CDK4 ELISA kinase assay (phospho-Rb ser 795 detection); type: biochemical; conditions: In Vitro Enzyme Assays, 200 μM ATP, read-out: CDK4 IC50
# T3 construct: made in house; host or cells: Sf9 insect cells, recombinant baculovirus
# T3 sequence (P11802 whole entry, species assumed): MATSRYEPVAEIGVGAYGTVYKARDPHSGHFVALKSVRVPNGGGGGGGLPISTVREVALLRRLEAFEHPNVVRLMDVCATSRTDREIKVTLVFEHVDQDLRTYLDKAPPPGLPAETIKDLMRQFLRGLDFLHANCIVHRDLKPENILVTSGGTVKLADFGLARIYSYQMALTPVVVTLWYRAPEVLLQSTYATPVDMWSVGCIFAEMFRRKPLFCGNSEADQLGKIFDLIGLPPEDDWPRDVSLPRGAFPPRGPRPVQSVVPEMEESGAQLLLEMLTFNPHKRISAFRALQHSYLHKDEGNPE
# T3 sequence (P24385 whole entry partner, species assumed): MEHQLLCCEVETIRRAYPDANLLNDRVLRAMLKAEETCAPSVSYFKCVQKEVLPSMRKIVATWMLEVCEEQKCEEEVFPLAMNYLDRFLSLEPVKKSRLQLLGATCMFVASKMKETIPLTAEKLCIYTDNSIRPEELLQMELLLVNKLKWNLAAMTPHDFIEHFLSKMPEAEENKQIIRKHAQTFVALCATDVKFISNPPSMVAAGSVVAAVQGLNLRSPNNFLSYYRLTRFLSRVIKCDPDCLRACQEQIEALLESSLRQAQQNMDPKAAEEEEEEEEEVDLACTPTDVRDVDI
# Procedure, shortened: as §1
IC50 (cyclin E/CDK2 enzyme) [nM],melting point [°C],IC50 (cyclin B/CDK1 enzyme) [nM],IC50 (cyclin D1/cdk 4 enzyme) [nM],SMILES,IC50 (BT474) [nM],IC50 (LoVo) [nM],IC50 (MCF-7) [nM],IC50 (HCT-116) [nM]
> 50000,213 to 214,> 50000,31000,"COc1ccc(-c2ccc3c(c2)/C(=C/Nc2cnc(N4C[C@@H](C)N[C@@H](C)C4)c(C)c2)C(=O)NC3=O)cc1 [Example 357, (4Z)-4-[({6-[(3R,5S)-3,5-Dimethylpiperazin-1-yl]-5-methylpyridin-3-yl}amino)methylene]-6-(4-methoxyphenyl)isoquinoline-1,3(2H,4H)-dione]",2500,2800,1600,1100
43400,232 to 233,35500,310,"COc1ccc(-c2ccc3c(c2)/C(=C/Nc2ccc(CN4CCCC4C)cc2)C(=O)NC3=O)cc1 (centres unmarked) [Example 358, (4Z)-6-(4-Methoxyphenyl)-4-[({4-[(2-methylpyrrolidin-1-yl)methyl]phenyl}amino)-methylene]-isoquinoline-1,3(2H,4H)-dione]",2600,3000,2500,1400
260,185 to 186,1500,20,"CN(C)C/C=C/C(=O)Nc1ccc(CN/C=C2\C(=O)NC(=O)c3ccc(I)cc32)cc1O [Example 359, (2E)-4-(Dimethylamino)-N-[2-hydroxy-4-({[(Z)-(6-iodo-1,3-dioxo-2,3-dihydroisoquinolin-4(1H)-ylidene)methyl]amino}methyl)phenyl]but-2-enamide]",120,340,400,230
1900,236 to 237,31700,120,"CCCNc1ccc(CN/C=C2\C(=O)NC(=O)c3ccc(I)cc32)cc1O [Example 366, (4Z)-4-({[3-Hydroxy-4-(propylamino)benzyl]amino}methylene)-6-iodoisoquinoline-1,3(2H,4H)-dione]",3800,2800,6900,3300
> 50000,190 to 191,42500,21100,"O=C1NC(=O)c2ccc(Br)cc2/C1=C/Nc1cc(F)c(N2CCN3CCC[C@H]3C2)c(F)c1 [Example 370, (4Z)-6-Bromo-4-[({3,5-difluoro-4-[(8aS)-hexahydropyrrolo[1,2-a]pyrazin-2(1H)-yl]phenyl}amino)methylene]isoquinoline-1,3(2H,4H)-dione]",6300,6400,6700,4200
> 50000,190 to 191,> 50000,100,"O=C1NC(=O)c2ccc(-c3ccsc3)cc2/C1=C/Nc1cc(F)c(N2CCN3CCC[C@H]3C2)c(F)c1 [Example 371, (4Z)-4-[({3,5-Difluoro-4-[(8aS)-hexahydropyrrolo[1,2-a]pyrazin-2(1H)-yl]phenyl}amino)-methylene]-6-thien-3-ylisoquinoline-1,3(2H,4H)-dione]",3100,2800,4100,1100
20200,224 to 225,> 50000,> 50000,"C[C@@H]1CN(c2ccc(N/C=C3\C(=O)NC(=O)c4ccc(Br)cc43)cc2C(F)(F)F)C[C@H](C)N1 [Example 372, (4Z)-6-Bromo-4-({[4-[(3R,5S)-3,5-dimethylpiperazin-1-yl]-3-(trifluoromethyl)phenyl]amino}methylene)isoquinoline-1,3(2H,4H)-dione]",2900,1400,3200,1200
